Reference: publication PMC4018993, “Use of “one-pot, mix-and-read” peptide-MHC class I tetramers and predictive algorithms to improve detection of cytotoxic T lymphocyte responses in cattle” (Veterinary Research, 2014)
Entries after “also recorded” stand apart in the source; their conditions may differ.

Experiments:
CTL line Bx63 = assay: p-MHC class I tetramer staining of CTL line Bx63; assay type: cell-based, bovine; settings: cell line Bx63; Tp8_379-387-BoLA-3*00101 tetramers
Protocol: (§1) UFC510024] at 14 000 g for 10 min.

CTL line BB007 [1] = assay: p-MHC class I tetramer staining of CTL line BB007; assay type: cell-based, bovine; settings: peptide as BoLA-6*01301 tetramer, PE-streptavidin; Figure 1
Protocol: as §1

CTL line Bx196 = assay: p-MHC class I tetramer staining of CTL line Bx196; assay type: cell-based, bovine; settings: cell line printed as 196; Tp2_96-104-BoLA-T2c tetramers
Protocol: as §1

BoLA-6*01301 = system: BoLA-6*01301
Protocol: Peptides were purchased from Mimotopes (Victoria, Australia) at a purity of 95% and re-suspended in water containing 0.1% acetic acid at a final concentration of 10 mM and diluted to working concentrations in sterile water. The sequences of T. parva peptide epitopes are as in Table 1.

BoLA-1*02301 = assay: p-MHC monomer binding assay, BoLA-1*02301; design: species or system bovine; settings: data not shown
Protocol: (§2) Folding of p-MHC class I complexes was assessed with an ELISA assay as described in [35]. […] After an incubation of 48 h at 18 °C, the complexes were transferred to another 96-well plate pre-coated with streptavidin (Nunc, cat# 436014), which captures biotinylated HC, and incubated for three hours at 4 °C. After washing, the W6/32 monoclonal antibody (Santa Cruz Biotechnology, Texas, USA, cat # SC-32235), which binds to a monomorphic epitope on β2m but only when it is incorporated in p-MHC class I complexes, was added for 1 h at 4 °C. After washing, anti-mouse IgG coupled to peroxidase (Sigma Aldrich, cat # A9917-1ML) was added to the plate followed by incubation for an hour at room temperature and further rounds of washes. Colorimetric change was performed by adding the TMB Plus2 “Ready to Use” Substrate (Kem En Tec, cat # 4395H) for 10 min at room temperature. The reaction was stopped by adding H2SO4 (0.3 M) and optical density was measured using an ELISA plate reader at 450 nm. The concentration of MHC class I and β2m molecules used in such assays is normally in the nanomolar range [35]. […] We are in the process of generating a β2m without the extra start methionine, which should allow use of recombinant molecules in the nanomolar range.

BoLA-T5 = assay: peptide-BoLA binding assay, BoLA-T5; design: species or system bovine; settings: peptide-BoLA binding assays
Protocol: as §2

CTL line BV50 = assay: p-MHC class I tetramer staining of CTL line BV50; assay type: cell-based, bovine
Protocol: as §1

BoLA-3*00101 = system: BoLA-3*00101; design: method as in PMID 18070892; settings: ref [29]; cited from earlier work
BoLA-T7 (bovine) = assay: not stated; preliminary data, not shown
CTL line BB007 [2] = assay: multiple staining of tetramer-positive cells (CD8, FasL, perforin); assay type: cell-based, bovine
Protocol: Flow cytometry data were acquired on a BD FACSCanto™ II instrument (BD Biosciences). Compensation controls for PE, PerCP, FITC and APC were included for automatic compensation by the FACS DIVA software. 10 μL BoLA class I tetramer was used for staining cells (between 2 × 10^5 and 5 × 10^5 cells per sample). CD8 staining was done by incubating cells with ILRI monoclonal antibody ILA51 (IgG1) and using rat anti-mouse IgG1-PerCP (BD; cat # 340272) as the secondary antibody. Staining for perforin was done using anti-human-perforin-FITC (BD Pharmingen, San diego, CA, USA, cat# 556577) and staining for Fas-ligand was done using primary rabbit anti-Fas ligand (Santa Cruz biotechnology, cat no. SC-957) and secondary FITC-coupled anti-rabbit IgG antibody (Sigma, MO, USA, cat# F-0382). All staining were conducted in PBS-0.5% BSA except for intracellular staining with anti-perforin where cells were incubated and stained in PBS-0.1%Saponin-10% FBS. Negative control for intracellular staining was done with anti-dansyl-FITC antibody (BD Pharmingen, San diego, CA, USA, cat# 556577). The data were analyzed using the FlowJo software version 7.6.5.

PBMC of BoLA-A18 cattle = assay: ex vivo tetramer staining of PBMC from ITM-vaccinated cattle; settings: days 15 to 17 post ITM vaccination, T. parva Muguga 3308; Tp1_214-224-BoLA-6*01301 tetramers; three BoLA-A18 cattle
Protocol: Three cattle of BoLA-A18 haplotype (typed with PCR primers [forward] 5’-[…]-3’ and [reverse] 5’-[…]-3’ specific for BoLA-6*01301) were vaccinated by ITM [24] using the T. parva strain Muguga 3308. Whole blood was collected from these cattle at the day of vaccination (day 0) and every two days till appearance of tetramer positive cells. PBMC were purified on Ficoll paque density gradients at 2500 rpm for 25 min and 5 × 10^5 PBMC were stained with the Tp1_214-224-BoLA-6*01301 tetramer as described in the flow cytometry procedure. This animal experiment was approved by the ILRI IACUC committee [# 2012.10].

For CGAELNHFL [Tp8_379-387], the “tetramer positive cells” value (CTL line Bx63) was “about 3%”.
With FAQSLVCVL [Tp2_96-104] the “tetramer staining of CTL (in words)” value (CTL line BB007 [1]) was “low level smear staining”, the “tetramer positive cells” value (CTL line Bx196) was “about 65%” and the “binding to BoLA-6*01301 (in words)” value (BoLA-6*01301) was “does not bind BoLA-6*01301”.
For SKADVIAKY [Tp5_87-95], the “p-MHC monomer binding to BoLA-1*02301 (in words)” value (BoLA-1*02301) was “confirmed by p-MHC monomer binding assays; also recorded: does indeed bind both BoLA molecules”, the “peptide-BoLA binding, BoLA-T5 (in words)” value (BoLA-T5) was “does indeed bind both BoLA molecules” and the “co-staining by Tp5_87-95-BoLA-1*02301 (PE) and Tp5_87-95-BoLA-T5 (APC) tetramers (in words)” value (CTL line BV50; CD8-gated, Figure 7C) was “both tetramers bind the same population of CTL; also recorded: a single TCR can recognize the Tp5_87-95 epitope presented by either BoLA molecule”. The “tetramer staining of BV50 (in words)” value (CTL line BV50; peptide as Tp5_87-95-BoLA-1*02301 tetramer, BV50 and 495 lines tested) was “The only CTL line stained by this tetramer was BV50” and the “tetramer staining of BV50 (in words)” value (CTL line BV50; peptide as Tp5_87-95-BoLA-T5 tetramer, Figure 7B) was “also stained by Tp5_87-95-BoLA-T5 p-MHC class I tetramers”.
In the case of “TGASIQTTL [Tp4 CTL epitope, control peptide for BoLA-3*00101]”, the “binding to BoLA-3*00101 (in words)” value (BoLA-3*00101) is given as “known binder to BoLA-3*00101”.
For Tp7_(206-214) peptide, the Kd (BoLA-T7 (bovine)) was 252 nM.
With Tp7_(207-214) peptide the Kd (BoLA-T7 (bovine)) was 142 nM.
With VGYPKVKEEML [Tp1_214-224] the “tetramer staining of CTL (in words)” value (CTL line BB007 [1]) was “staining of a clear distinct cell population”, the “CD8 and perforin, triple staining” value (CTL line BB007 [2]; Figure 4D) was “tetramer-positive cells are also positive for CD8 and perforin” and the “CD8 expression of Tp1 tetramer positive cells” value (CTL line BB007 [2]; Tp1_214-224-BoLA-6*01301 tetramer, Figure 4A) was “all Tp1 positive cells in the cell line BB007 were CD8-positive”. The “FasL expression of Tp1 tetramer positive cells” value (CTL line BB007 [2]; Tp1_214-224-BoLA-6*01301 tetramer, Figure 4B) was “FasL-positive”, the “perforin expression of Tp1 tetramer positive cells” value (CTL line BB007 [2]; Tp1_214-224-BoLA-6*01301 tetramer, Figure 4C) was “perforin-positive” and the “frequency of Tp1 tetramer positive cells in PBMC” value (PBMC of BoLA-A18 cattle) was “about 1%”.
With YMYRVWSPL the “tetramer staining of CTL (in words)” value (CTL line BB007 [1]) was “very low staining”, the “binding to BoLA-6*01301 (in words)” value (BoLA-6*01301) was “binds to BoLA-6*01301” and the “affinity for BoLA-6*01301” value (BoLA-6*01301; control peptide from a bank of random nonamer peptides, binding assay as described in [34]) was ≥ 1 nM.
